From publication PMC9927415, “Tyrosine Kinase Inhibitors Display Potent Activity against Cryptosporidium parvum” (Microbiology Spectrum, 2022)

Legend:
Assay in all cases: KINOMEscan competitive binding, whole panel
panel of 203 kinases [1] = target: T1, panel of 203 kinases (Homo sapiens, UniProt Q8IWQ3); conditions: 10 µM, n=1; kinase BRSK2; read-out: Percent inhibition BRSK2
T1 construct: purchased DiscoverX (KINOMEscan)
T1 sequence (Q8IWQ3 1-736): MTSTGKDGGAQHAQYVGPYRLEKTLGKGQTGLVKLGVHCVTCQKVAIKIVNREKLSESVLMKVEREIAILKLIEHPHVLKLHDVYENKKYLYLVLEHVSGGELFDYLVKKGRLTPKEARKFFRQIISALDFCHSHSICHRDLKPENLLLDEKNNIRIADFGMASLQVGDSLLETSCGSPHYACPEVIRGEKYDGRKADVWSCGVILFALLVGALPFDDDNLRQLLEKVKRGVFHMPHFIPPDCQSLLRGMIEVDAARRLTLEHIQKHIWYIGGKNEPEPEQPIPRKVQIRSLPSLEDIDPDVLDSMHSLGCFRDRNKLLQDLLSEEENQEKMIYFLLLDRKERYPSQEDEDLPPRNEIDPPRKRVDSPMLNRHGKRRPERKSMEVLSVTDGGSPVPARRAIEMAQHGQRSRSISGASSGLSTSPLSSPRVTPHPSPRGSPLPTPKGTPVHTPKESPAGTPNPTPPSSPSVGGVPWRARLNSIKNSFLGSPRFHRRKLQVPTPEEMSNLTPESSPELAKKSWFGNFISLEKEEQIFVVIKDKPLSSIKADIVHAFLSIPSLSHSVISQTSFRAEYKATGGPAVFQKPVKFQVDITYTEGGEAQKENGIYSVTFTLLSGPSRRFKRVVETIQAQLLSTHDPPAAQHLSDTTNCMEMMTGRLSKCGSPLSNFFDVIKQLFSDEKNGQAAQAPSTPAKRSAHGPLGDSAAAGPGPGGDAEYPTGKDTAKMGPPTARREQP
How it was run: (§1)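 Percentage inhibition reflects loss of kinase binding to solid-phase ATP-site probe ligands in the presence of compound. Kinases carry a T7 bacteriophage fusion.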

panel of 203 kinases [2] = target: T2, panel of 203 kinases (Homo sapiens, UniProt P51955); conditions: 10 µM, n=1; kinase NEK2; read-out: Percent inhibition NEK2
T2 construct: purchased DiscoverX (KINOMEscan)
T2 sequence (P51955 1-445): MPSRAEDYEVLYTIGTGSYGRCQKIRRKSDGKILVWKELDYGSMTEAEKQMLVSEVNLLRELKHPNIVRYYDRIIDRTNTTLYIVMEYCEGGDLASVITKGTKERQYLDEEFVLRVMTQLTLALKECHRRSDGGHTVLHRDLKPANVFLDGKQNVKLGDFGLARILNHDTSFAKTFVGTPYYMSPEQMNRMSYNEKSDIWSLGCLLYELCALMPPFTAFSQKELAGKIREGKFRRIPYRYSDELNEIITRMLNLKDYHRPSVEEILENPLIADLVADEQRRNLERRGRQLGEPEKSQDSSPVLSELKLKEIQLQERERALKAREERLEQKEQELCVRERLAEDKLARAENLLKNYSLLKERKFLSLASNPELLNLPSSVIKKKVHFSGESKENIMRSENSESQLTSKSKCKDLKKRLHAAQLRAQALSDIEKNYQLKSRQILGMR
How it was run: as §1

panel of 203 kinases [3] = target: T3, panel of 203 kinases (Homo sapiens, UniProt Q8TDX7); conditions: 10 µM, n=1; kinase NEK7; read-out: Percent inhibition NEK7
T3 construct: purchased DiscoverX (KINOMEscan)
T3 sequence (Q8TDX7 whole entry): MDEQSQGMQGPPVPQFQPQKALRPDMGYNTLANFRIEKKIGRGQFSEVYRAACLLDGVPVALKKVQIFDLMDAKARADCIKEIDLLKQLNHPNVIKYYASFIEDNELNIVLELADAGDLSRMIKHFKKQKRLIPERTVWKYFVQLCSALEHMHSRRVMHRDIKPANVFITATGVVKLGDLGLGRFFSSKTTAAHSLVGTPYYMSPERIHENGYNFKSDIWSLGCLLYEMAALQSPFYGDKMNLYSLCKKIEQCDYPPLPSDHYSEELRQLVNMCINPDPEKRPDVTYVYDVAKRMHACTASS
How it was run: as §1

panel of 203 kinases [4] = target: T4, panel of 203 kinases (Homo sapiens, UniProt P21802); conditions: 10 µM, n=1; kinase FGFR2; read-out: Percent inhibition FGFR2
T4 construct: purchased DiscoverX (KINOMEscan)
T4 sequence (P21802 22-821): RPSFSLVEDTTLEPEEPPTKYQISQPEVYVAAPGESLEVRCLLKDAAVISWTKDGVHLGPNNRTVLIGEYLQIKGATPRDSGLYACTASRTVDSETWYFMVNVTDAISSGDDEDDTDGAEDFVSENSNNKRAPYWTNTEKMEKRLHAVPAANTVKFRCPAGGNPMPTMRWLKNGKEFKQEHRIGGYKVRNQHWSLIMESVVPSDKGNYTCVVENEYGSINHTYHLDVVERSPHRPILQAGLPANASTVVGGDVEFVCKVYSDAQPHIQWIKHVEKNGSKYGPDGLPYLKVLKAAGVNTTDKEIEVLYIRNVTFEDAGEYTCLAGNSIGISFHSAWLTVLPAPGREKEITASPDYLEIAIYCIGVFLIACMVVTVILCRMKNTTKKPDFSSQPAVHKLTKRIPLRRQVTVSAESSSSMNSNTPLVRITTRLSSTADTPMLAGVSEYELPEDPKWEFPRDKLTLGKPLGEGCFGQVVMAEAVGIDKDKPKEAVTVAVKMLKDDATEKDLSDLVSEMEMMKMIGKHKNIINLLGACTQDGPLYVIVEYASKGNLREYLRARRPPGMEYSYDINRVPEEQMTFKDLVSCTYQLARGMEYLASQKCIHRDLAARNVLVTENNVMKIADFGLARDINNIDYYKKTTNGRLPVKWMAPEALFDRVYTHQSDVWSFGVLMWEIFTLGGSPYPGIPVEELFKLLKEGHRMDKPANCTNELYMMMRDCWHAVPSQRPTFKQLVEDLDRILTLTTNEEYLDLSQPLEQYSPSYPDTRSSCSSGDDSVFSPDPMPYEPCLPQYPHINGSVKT
How it was run: as §1

panel of 203 kinases [5] = target: T5, panel of 203 kinases (Homo sapiens, UniProt P15056); conditions: 10 µM, n=1; kinase BRAF; read-out: Percent inhibition BRAF
T5 construct: purchased DiscoverX (KINOMEscan)
T5 sequence (P15056 whole entry): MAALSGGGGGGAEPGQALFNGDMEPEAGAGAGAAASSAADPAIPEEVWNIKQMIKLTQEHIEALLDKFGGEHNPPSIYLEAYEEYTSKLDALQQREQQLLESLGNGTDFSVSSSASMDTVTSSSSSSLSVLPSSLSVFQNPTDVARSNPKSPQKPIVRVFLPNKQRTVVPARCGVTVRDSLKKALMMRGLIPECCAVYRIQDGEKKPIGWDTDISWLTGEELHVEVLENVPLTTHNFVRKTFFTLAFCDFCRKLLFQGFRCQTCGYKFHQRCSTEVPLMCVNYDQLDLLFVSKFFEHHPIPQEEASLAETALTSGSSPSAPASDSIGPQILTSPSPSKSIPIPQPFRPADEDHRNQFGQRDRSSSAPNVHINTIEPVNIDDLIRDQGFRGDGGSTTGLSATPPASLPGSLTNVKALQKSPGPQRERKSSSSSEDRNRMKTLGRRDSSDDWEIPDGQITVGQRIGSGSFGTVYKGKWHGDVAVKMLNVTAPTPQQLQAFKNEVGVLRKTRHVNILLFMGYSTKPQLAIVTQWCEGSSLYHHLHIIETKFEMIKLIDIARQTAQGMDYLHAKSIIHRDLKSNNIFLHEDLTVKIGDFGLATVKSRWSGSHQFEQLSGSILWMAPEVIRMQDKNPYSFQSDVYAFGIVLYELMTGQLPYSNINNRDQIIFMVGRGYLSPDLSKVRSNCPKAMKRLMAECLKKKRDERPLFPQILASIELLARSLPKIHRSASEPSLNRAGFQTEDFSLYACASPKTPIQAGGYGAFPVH
How it was run: as §1

panel of 203 kinases [6] = target: T6, panel of 203 kinases (Homo sapiens, UniProt P29323); conditions: 10 µM, n=1; kinase EPHB2; read-out: Percent inhibition EPHB2
T6 construct: purchased DiscoverX (KINOMEscan)
T6 sequence (P29323 19-1055): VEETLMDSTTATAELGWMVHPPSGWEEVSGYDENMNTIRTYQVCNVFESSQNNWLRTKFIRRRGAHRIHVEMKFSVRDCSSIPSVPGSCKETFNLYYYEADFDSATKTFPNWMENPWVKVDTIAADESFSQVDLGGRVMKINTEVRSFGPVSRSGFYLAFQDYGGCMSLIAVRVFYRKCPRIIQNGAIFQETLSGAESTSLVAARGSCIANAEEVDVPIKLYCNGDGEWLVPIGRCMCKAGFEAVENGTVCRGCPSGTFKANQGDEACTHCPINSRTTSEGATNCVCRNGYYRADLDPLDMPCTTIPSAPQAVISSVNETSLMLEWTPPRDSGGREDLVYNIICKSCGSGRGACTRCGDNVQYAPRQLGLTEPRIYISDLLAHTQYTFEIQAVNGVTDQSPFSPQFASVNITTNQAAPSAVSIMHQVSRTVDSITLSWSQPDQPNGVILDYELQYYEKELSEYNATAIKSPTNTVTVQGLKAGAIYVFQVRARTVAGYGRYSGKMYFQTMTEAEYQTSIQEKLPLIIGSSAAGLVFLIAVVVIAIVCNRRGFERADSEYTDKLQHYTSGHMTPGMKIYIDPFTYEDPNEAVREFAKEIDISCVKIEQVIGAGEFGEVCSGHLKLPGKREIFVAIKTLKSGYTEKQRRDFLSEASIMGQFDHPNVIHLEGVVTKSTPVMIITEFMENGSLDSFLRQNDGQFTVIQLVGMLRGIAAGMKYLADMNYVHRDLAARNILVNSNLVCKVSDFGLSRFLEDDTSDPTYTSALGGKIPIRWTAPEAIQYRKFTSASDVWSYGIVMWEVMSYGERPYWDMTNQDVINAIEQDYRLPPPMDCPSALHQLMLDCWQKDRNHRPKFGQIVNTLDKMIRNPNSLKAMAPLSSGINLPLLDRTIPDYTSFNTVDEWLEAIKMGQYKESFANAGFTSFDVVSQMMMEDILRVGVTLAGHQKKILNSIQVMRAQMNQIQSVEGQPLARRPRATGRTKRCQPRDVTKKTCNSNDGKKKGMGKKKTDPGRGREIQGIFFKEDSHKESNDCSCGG
How it was run: as §1

panel of 203 kinases [7] = target: T7, panel of 203 kinases (Homo sapiens, UniProt Q9HAZ1); conditions: 10 µM, n=1; kinase CLK4; read-out: Percent inhibition CLK4
T7 construct: purchased DiscoverX (KINOMEscan)
T7 sequence (Q9HAZ1 whole entry): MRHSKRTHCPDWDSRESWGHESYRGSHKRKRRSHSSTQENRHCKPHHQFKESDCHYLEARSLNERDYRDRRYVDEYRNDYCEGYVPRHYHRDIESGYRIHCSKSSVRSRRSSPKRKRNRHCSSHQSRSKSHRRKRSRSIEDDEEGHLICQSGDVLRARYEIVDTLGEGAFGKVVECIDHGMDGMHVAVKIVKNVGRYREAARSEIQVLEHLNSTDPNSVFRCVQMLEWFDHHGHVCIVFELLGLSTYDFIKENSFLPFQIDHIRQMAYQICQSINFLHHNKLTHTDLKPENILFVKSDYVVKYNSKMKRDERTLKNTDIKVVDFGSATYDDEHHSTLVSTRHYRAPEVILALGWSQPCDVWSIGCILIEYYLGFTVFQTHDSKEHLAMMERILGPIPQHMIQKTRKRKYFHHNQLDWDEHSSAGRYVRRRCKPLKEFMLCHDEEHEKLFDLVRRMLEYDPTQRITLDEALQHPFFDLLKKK
How it was run: as §1

panel of 203 kinases [8] = target: T8, panel of 203 kinases (Homo sapiens, UniProt P00519); conditions: 10 µM, n=1; kinase ABL1; read-out: Percent inhibition ABL1
T8 construct: purchased DiscoverX (KINOMEscan)
T8 sequence (P00519 whole entry): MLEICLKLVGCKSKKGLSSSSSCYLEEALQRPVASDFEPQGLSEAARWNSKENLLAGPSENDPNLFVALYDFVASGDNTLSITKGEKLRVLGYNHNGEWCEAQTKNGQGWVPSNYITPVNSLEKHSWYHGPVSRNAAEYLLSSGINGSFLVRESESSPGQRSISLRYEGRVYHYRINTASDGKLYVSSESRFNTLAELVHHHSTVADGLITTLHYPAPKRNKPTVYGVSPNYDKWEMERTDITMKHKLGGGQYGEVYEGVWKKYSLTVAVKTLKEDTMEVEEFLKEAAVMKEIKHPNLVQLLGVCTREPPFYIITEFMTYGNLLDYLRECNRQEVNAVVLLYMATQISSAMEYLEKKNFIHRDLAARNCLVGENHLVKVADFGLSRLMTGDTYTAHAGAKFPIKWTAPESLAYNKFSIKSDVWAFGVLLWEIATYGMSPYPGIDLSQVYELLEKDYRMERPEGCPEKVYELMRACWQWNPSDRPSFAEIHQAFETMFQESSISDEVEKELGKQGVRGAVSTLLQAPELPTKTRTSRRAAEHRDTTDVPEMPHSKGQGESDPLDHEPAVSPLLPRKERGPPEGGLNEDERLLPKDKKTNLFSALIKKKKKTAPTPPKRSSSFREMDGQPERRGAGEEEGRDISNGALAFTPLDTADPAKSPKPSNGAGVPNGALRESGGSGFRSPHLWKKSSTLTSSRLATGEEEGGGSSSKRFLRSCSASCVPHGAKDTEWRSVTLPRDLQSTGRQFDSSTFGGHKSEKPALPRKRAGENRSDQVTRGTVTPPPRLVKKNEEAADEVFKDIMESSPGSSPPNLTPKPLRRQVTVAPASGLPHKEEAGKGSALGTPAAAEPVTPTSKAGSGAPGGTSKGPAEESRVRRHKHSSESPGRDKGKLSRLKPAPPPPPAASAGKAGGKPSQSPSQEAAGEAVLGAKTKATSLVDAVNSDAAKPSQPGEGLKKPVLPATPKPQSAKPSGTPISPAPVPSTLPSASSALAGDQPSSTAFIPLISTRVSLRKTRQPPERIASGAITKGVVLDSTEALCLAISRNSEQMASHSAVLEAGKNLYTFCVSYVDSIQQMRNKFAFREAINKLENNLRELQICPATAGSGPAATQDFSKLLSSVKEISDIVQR
How it was run: as §1

Row | SMILES | inhibition at 10 µM (panel of 203 kinases [1]) [%] | inhibition at 10 µM (panel of 203 kinases [2]) [%] | inhibition at 10 µM (panel of 203 kinases [3]) [%] | inhibition at 10 µM (panel of 203 kinases [4]) [%] | inhibition at 10 µM (panel of 203 kinases [5]) [%] | inhibition at 10 µM (panel of 203 kinases [6]) [%] | inhibition at 10 µM (panel of 203 kinases [7]) [%] | inhibition at 10 µM (panel of 203 kinases [8]) [%]
1 | C[C@@H](Oc1cc(-c2cnc3ccccn23)sc1C(N)=O)c1ccccc1Cl [Compound 8] | 91.2 | 99.4 | 0 | 0 | 0 | 0 | 81 | 0
2 | Cc1ccc(O)cc1N(C)c1ccnc(Nc2cccc(S(N)(=O)=O)c2)n1 [Compound 4] | 0 | 0 | 0 | 0 | 0 | 100 | 0 | 99.8
3 | COc1cc(Nc2nccc(-c3sc(N)nc3-c3cccc(NC(=O)c4c(F)cccc4F)c3)n2)cc(OC)c1OC [Compound 7] | 0 | 100 | 91.3 | 100 | 100 | 99.4 | 0 | 99.7
4 | CN1CCN(c2ccc(Nc3nccc(-c4cnn5ncccc45)n3)cc2C#N)CC1 [Compound 1] | 0 | 98.5 | 100 | 70.1 | 0 | 0 | 99.5 | 87.3
5 | Fc1cccc(COc2ccc(Nc3ncnc4c3CN(CCN3CCOCC3)CC4)cc2Cl)c1 [Compound 6] | 0 | 0 | 0 | 0 | 0 | 0 | 0 | 0
6 | Cc1ccc(O)cc1Nc1ccnc(Nc2cccc(C(N)=O)c2)n1 [Compound 3] | 0 | 0 | 0 | 0 | 0 | 100 | 0 | 99.7
7 | Clc1ccc(Nc2ncc(-c3ccccc3)s2)cc1 [Compound 10] | 0 | 0 | 0 | 0 | 0 | 0 | 0 | 0
8 | COc1ccc(Nc2nccc(-c3cnn4ncccc34)n2)cc1 [Compound 2] | 0 | 99.9 | 100 | 0 | 99.6 | 0 | 98.7 | 0
9 | c1ccc(COc2cccc(-c3ccnc4[nH]ccc34)c2)cc1 [Compound 9] | 0 | 0 | 0 | 0 | 0 | 0 | 0 | 0
10 | Nc1ncc2c(-c3ccncc3)c[nH]c2n1 [Compound 11] | 0 | 0 | 0 | 0 | 0 | 62.6 | 93.4 | 0
